Measurements taken from patent publication US6680332B1, “Substituted 5-oxo-5,6,7,8-tetrahydro-4H-1-benzopyrans and benzothiopyrans and the use thereof as potentiators of AMPA” (Euro-Celtique S.A., priority 1999, dated 2004).
Several values for one entry are separate records, joined by “and”; a condition that tells them apart may be missing. Equal values may be shown once.

Key:
AMPA receptors = test: Electrophysiology: potentiation of AMPA-evoked membrane currents in Xenopus oocytes injected with rat cortical poly(A)+ RNA (two-electrode voltage clamp); type: cell-based; conditions: 10 μM AMPA; for AMPA positive potentiation 2-fold @ μM (concentration required for 2-fold potentiation of the AMPA response): rat cortical poly(A)+ RNA, holding potential -70 mV
Procedure: FIG. 1 depicts a graph showing the concentration-effect relationship for the potentiation of AMPA-evoked currents in Xenopus oocytes by the compound of Example 4. Xenopus oocytes were injected with rat cortical poly (A+) RNA and membrane currents were measured by a standard, two-microelectrode voltage clamp method. A solution of AMPA (10 μM) was superfused through the recording chamber in the absence (control) or presence of increasing concentrations of the compound of Example 4. “I” is membrane current.
The novel compounds of the invention were assessed by electrophysiological assays in Xenopus oocytes expressing rat […] poly(A)^+ RNA (see Keana et al, J. Med. Chem. 38:4367-4379 (1995)) or in cultured rat cortical neurons (see Woodward et al., Mol. Pharmacol. 47:568-581 (1995)) for AMPA receptor activity. The compounds that potentiate currents across the oocyte membrane are expected to be useful as cognitive enhancers or for the treatment of schizophrenia, myoclonus or neurodegenerative diseases such as Parkinson's disease and Alzheimer's disease. Thus, the present invention is directed to compounds that are positive modulators of AMPA receptors.
Total RNA was prepared from rat cerebral cortex by homogenization in urea/LiCl followed by phenol/chloroform extraction. Polyadenylated (poly A^+) mRNA was isolated from total cellular RNA by oligo-dT cellulose chromatography. Xenopus oocytes were prepared by the method of Woodward et al. (Mol. Pharmacol. 41, 89-103 (1992)). Oocytes were microinjected with approximately 50 ng of cortical poly(A)^+ RNA and stored in Barth's medium (containing in mM: NaCl, 88; KCl, 1; CaCl2, 0.41; Ca(NO3)2, 0.33; MgSO4, 0.82; NaHCO3, 2.4; HEPES 5; pH 7.4, with 0.1 mg/ml gentamycin sulphate) for 6 days prior to recording. Membrane current responses were recorded in frog Ringer solution containing (in mM): NaCl, 115; KCl, 2; CaCl2, 1.8; HEPES, 5; pH 7.4, or in a nominally Ca^2+-free Ringer solution containing (in mM): NaCl, 115; KCl, 2; BaCl2, 1.8; HEPES, 5; pH 7.4. Electrical recordings were made using a conventional two-electrode voltage clamp (Dagan TEV-200). The oocyte was placed in a 5 ml chamber lined with nylon mesh, impaled with two micro-electrodes and voltage-clamped at a holding potential of −70 mV. A scaled up linear array system (Benveniste and Mayer, J. Physiol. 464, 131-163 (1993)) was used to superfuse the oocyte in Ringer solution and to apply drugs and wash solutions. A control concentration (10 μM) of AMPA was applied to the oocyte to determine a baseline membrane current response. The modulation of this response by AMPA potentiators was measured by applying increasing concentrations of the potentiator in Ringer solution for ˜30 s followed by coapplication of the potentiator with 10 μM AMPA. The resulting membrane current responses were analyzed by sigmoidal curve fitting (Origin, Microcal Software, Inc.).

Row | Molecule | AMPA positive potentiation 2-fold @ μM (concentration required for 2-fold potentiation of the AMPA response) (AMPA receptors) | EC50 (AMPA receptors; sigmoidal curve fitting, read-out: half-maximally effective concentration for potentiation of the AMPA response) | maximal potentiation of the AMPA response (AMPA receptors; at 100 μM compound) | melting point
1 | COc1ccc(C2C(C#N)=C(N)OC3=C2C(=O)CC(C)(C)C3)cc1 (stereo not drawn) [Example 1, 2-Amino-3-cyano-7,7-dimethyl-4-(4-methoxyphenyl)-5-oxo-5,6,7,8-tetrahydro-4H-1-benzopyran] | 7.0 µM |  |  | 
2 | Cc1ccc(C2C(C#N)=C(N)OC3=C2C(=O)CC(C)(C)C3)cc1 (stereo not drawn) [Example 8, 2-Amino-3-cyano-7,7-dimethyl-4-(4-methylphenyl)-5-oxo-5,6,7,8-tetrahydro-4H-1-benzopyran] | 12.0 µM |  |  | 
3 | CC1(C)CC(=O)C2=C(C1)OC(N)=C(C#N)C2c1ccc(O)cc1 (stereo not drawn) [Example 10, 2-Amino-3-cyano-7,7-dimethyl-4-(4-hydroxyphenyl)-5-oxo-5,6,7,8-tetrakydro-4H-1-benzopyran] | 14.0 µM |  |  | 
4 | CC1(C)CC(=O)C2=C(C1)OC(N)=C(C#N)C2c1ccc([N+](=O)[O-])cc1 (stereo not drawn) [Example 12, 2-Amino-3-cyano-7,7-dimethyl-4-(4-nitrophenyl)-5-oxo-5,6,7,8-tetrakydro-4H-1-benzopyran] | 60.0 µM |  |  | 
5 | COc1cccc(C2C(C#N)=C(N)OC3=C2C(=O)CC(C)(C)C3)c1 (stereo not drawn) [Example 11, 2-Amino-3-cyano-7,7-dimethyl-4-(3-methzoxyphenyl)-5-oxo-5,6,7,8-tetrahydro-4H-1-benzopyran] | 6.0 µM |  |  | 
6 | CC1(C)CC(=O)C2=C(C1)OC(N)=C(C#N)C2c1ccc2c(c1)OCO2 (stereo not drawn) [Example 4, 2-Amino-3-cyano7,7-dimethyl-4-(3,4-methylenedioxyphenyl)-5-oxo-5,6,7,8-tetrahydro-4H-1-benzopyran] | 4 µM and 4.0 µM | 16.6 µM | 11 fold | 
7 | CC1(C)CC(=O)C2=C(C1)OC(N)=C(C#N)C2c1ccc(C#N)cc1 (stereo not drawn) [Example 16, 2-Amino-3-cyano-4-(4-cyanophenyl)-7,7-dimethyl-5-oxo-5,6,7,8-tetrahydro-4H-1-benzopyran] | 20.0 µM |  |  | 227 to 230 °C
8 | COc1ccc(C2C(C#N)=C(N)OC3=C2C(=O)CCC3)cc1 (stereo not drawn) [Example 5, 2-Amino-3-cyano-4-(4-methoxyphenyl)-5-oxo-5,6,7,8-tetrahydro-4H-1-benzopyran] | 35.0 µM |  |  | 209 to 212 °C
9 | CC1(C)CC(=O)C2=C(C1)OC(N)=C(C#N)C2c1ccncc1 (stereo not drawn) [Example 13, 2-Amino-3-cyano-7,7-dimethyl-4-(4-pyridyl)-5-oxo-5,6,7,8-tetrahydro-4H-1-benzopyran] | 60.0 µM |  |  | 222 to 224 °C
10 | Cc1cc(C)c(C2C(C#N)=C(N)OC3=C2C(=O)CC(C)(C)C3)c(C)c1 (stereo not drawn) [Example 2, 2-Amino-3-cyano-7,7-dimethyl-4-(2,4,6-trimethylphenyl)-5-oxo-5,6,7,8-tetrahydro-4H-1-benzopyran] | 4.0 µM |  |  | 
11 | CN(C)c1ccc(C2C(C#N)=C(N)OC3=C2C(=O)CC(C)(C)C3)cc1 (stereo not drawn) [Example 9, 2-Amino-3-cyano-7,7-dimethyl-4-(4-dimethylaminophenyl)-5-oxo-5,6,7,8-tetrahydro-4H-1-benzopyran] | 12.0 µM |  |  | 221 to 224 °C
12 | CC1(C)CC(=O)C2=C(C1)OC(N)=C(C#N)C2c1ccc2ccccc2c1 (stereo not drawn) [Example 18, 2-Amino-3-cyano-7,7-dimethyl-4-(2-naphthyl)-5-oxo-5,6,7,8-tetrahydro-4H-1-benzopyran] | 1.6 µM |  |  | 259 to 262 °C
13 | CC1(C)CC(=O)C2=C(C1)OC(N)=C(C#N)C2c1ccc(Cl)cc1 (stereo not drawn) [Example 6, 2-Amino-3-cyano-4-(4chlorophenyl)-7,7-dimethyl-5-oxo-5,6,7,8-tetrahydro-4N-1-benzopyran] | 18.0 µM |  |  | 
14 | CC1(C)CC(=O)C2=C(C1)OC(N)=C(C#N)C2c1cccc(O)c1 (stereo not drawn) [Example 7, 2-Amino-3-cyano-7,7-dimethyl-4-(3-hydroxyphenyl)-5-oxo-5,6,7,8-tetrahydro-4H-1-benzopyran] | 12.0 µM |  |  | 214 to 217 °C
15 | CC1(C)CC(=O)C2=C(C1)OC(N)=C(C#N)C2c1ccc(F)cc1 (stereo not drawn) [Example 17, 2-Amino-3-cyano-7,7-dimethyl-4-(4-fluorophenyl)-5-oxo-5,6,7,8-tetrahydro-4H-1-benzopyran] | 27.0 µM |  |  | 189 to 193 °C
16 | COc1cc(C2C(C#N)=C(N)OC3=C2C(=O)CC(C)(C)C3)cc2c1OCO2 (stereo not drawn) [Example 14, 2-Amino-3-cyano-7,7-dimethyl-4-(3-methoxy-4,5-methylenedioxyphenyl)-5-oxo-5,6,7,8-tetrahydro-4H-1-benzopyran] | 12.0 µM |  |  | 
17 | 2-Amino-3-cyano-7,7-dimethyl-4-(3,4-difluoromethylenedioxyphenyl)-5-oxo-5,6,7,8-tetrahydro-4H-1-benzopyran [Example 15] | 18.0 µM |  |  | 
18 | CC1(C)CC(=O)C2=C(C1)OC(N)=C(C#N)C2c1ccccc1 (stereo not drawn) [Example 3, 2-Amino-3-cyano-7,7-dimethyl-4-phenyl-5-oxo-5,6,7,8-tetrahydro-4H-1-benzopyran] | 12.0 µM |  |  | 
